Measurements reported in article PMC10728895, “Stapled Phd Peptides Inhibit Doc Toxin Induced Growth Arrest in Salmonella” (ACS Chemical Biology, 2023).
Entries after “also recorded” stand apart in the source; their conditions may differ. Positions of bridges follow the written chain, without caps; N, C: chain ends. Non-standard residues stand in square brackets, D forms with d. Residues, ends and D or L forms follow the SMILES beside them. *: point of attachment. 5FAM = O=C1OC2(c3ccc(O)cc3Oc3cc(O)ccc32)c2ccc(C(=O)*)cc21; S5 = C=CCCC[C@](C)(N)C(=O)O; Nle = CCCC[C@H](N)C(=O)O

How the values were obtained:
E. coli MG1655 = experiment: Peptide uptake in E. coli by flow cytometry; format: cell-based; settings: 5 μM FAM-labeled peptide in PBS, 2 h, 37 °C, E. coli MG1655, trypan blue quench, mean ± SD
Description: E. coli MG1655 strain was grown in LB medium to an OD600 of around 0.5. Approximately 10^7 cells were washed once with PBS and subsequently incubated with 5 μM of the indicated 5(6)-carboxyfluorescein-labeled Phd^52–73 peptide in PBS (500 μL) for 2 h at 37 °C. Bacteria were washed twice with PBS, and trypan blue (1 mg mL^–1) in PBS was added and incubated for 10 min at RT. Bacteria were washed an additional time with PBS and resuspended in 2 mL of PBS. Flow cytometry analysis was performed using a ThermoFisher Attune NxT and a blue laser (BL1) for fluorescein excitation.

[1] = tested on: S. typhimurium (14028s) glmS::mCherry strain; experiment: Peptide uptake in S. typhimurium by flow cytometry; format: cell-based; settings: RT
Description: S. typhimurium (14028s) glmS::mCherry strain was grown overnight in LB medium containing 1% glucose. The culture was then diluted to an OD600 of approximately 0.1 into 200 μL of fresh M9 minimal medium supplemented with 0.5% arabinose containing 2 or 10 μM of the indicated 5(6)-carboxyfluorescein-labeled Phd^52–73 peptide. The samples were incubated on the bench at RT for 4 or 22 h with no access to light. Bacteria were then spun down, washed with 1 mL of PBS solution, and finally resuspended in 1 mL of PBS solution for flow cytometry analysis (BD LSR II). Constitutively expressed mCherry was used to discriminate bacteria from the debris in each sample.

[2] = tested on: DocSTm (phosphorylation of EF-TuSTm); experiment: Dot blot EF-Tu phosphorylation assay; format: biochemical, Salmonella Typhimurium; settings: DocSTm 1 μM, EF-TuSTm 3 μM, peptide 10 μM to 5 nM (3-fold dilutions), 16 h RT, dot blot anti-phosphothreonine; compared at three times the DocSTm concentration; two independent experiments
Description: Samples were prepared in assay buffer [50 mM HEPES (pH 7.5), 25 mM (NH4)2SO4, 2 mM TCEP, 2 mM MgCl2, and 1 mM ATP] with a final concentration of recombinant Doc at 1 μM, recombinant EF-Tu at 3 μM, and varying concentrations of synthetic Phd peptides (final concentrations: 10 μM to 5 nM). EF-Tu (3 μM) in assay buffer was used as a negative control (no Doc and Phd peptide), while EF-Tu (3 μM) with Doc (1 μM) in assay buffer was used as a positive control (no Doc inhibitor). The final sample volume was 10 μL. Samples were incubated for 16 h at RT and subsequently spotted on a nitrocellulose membrane. Phosphorylated EF-Tu was detected by immunodecoration using a rabbit monoclonal antiphosphothreonine antibody (Abcam, ab218195) at 1:2000 dilution (1 h at 4 °C), followed by incubation with a goat antirabbit IgG (H + L) HRP conjugate antibody (Advansta) at 1:10,000 dilution (1 h at RT). Chemiluminescence was developed using the HRP Luminata Kit (Merck, WBLUR0100) and captured with an ImageQuant LAS4000 Western blot imaging system (GE HealthCare). Each peptide was tested in two independent experiments.

DocSTm toxin = settings: DocSTm 5 μM, peptide 50 μM; for Average Tm of DocSTm in the presence of peptide: pH 8.0, average ± SD, replicates 3-48 (Table S3)
Summary of the method: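 Thermal shift with 5 μM recombinant Doc toxin and 50 μM Phd peptides in 20 mM K2HPO4, 50 mM (NH4)2SO4, pH 8.0, SYPRO Orange 3×, ramped 25–95 °C. Tm from Boltzmann fit; ΔTm is peptide-bound minus free DocSTm Tm, triplicates.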

[3] = tested on: S. typhimurium (14028s) Δphd-doc::Km strain expressing DocSTm (pBAD33::doc); experiment: Growth rescue experiments in DocSTm-expressing S. typhimurium; format: cell-based; settings: three independent experiments; for Rescue from DocSTm-induced growth inhibition (OD600): 10 μM synthetic peptide, 24 h, 37 °C, start OD600 0.1, M9 minimal medium with 0.5% arabinose
Description: S. typhimurium (14028s) Δphd-doc::Km strains carrying pCA24N (empty vector or encoding for the Phd^52–73 variant) and pBAD33::doc plasmids were grown overnight in LB medium containing 1% glucose and supplemented with 100 μg/mL carbenicillin and 34 μg/mL chloramphenicol antibiotics. Cultures were then diluted to an OD600 of approximately 0.1 into 200 μL of fresh M9 minimal medium supplemented with 0.5% arabinose, 100 μg/mL carbenicillin, 34 μg/mL chloramphenicol, and containing 2 or 10 μM of the indicated synthetic Phd^52–73 peptide. Untreated DocSTm-expressing S. typhimurium as well as S. typhimurium coexpressing Doc and Phd^52–73 peptides were included as controls in each experiment. After 2 h of incubation at RT, samples were transferred to a flat-bottom 96-well plate (Greiner), and OD600 was monitored every 15 min for 24 h at 37 °C using an Infinite M Plex plate reader (Tecan LifeScience) and orbital shaking with 1 mm amplitude. Peptides were tested in three independent experiments.

Structure (SMILES)	Cellular uptake into E. coli (penetration efficiency) (E. coli MG1655)	Average Tm of DocSTm in the presence of peptide (DocSTm toxin) [°C]	Rescue from DocSTm-induced growth inhibition (OD600) [3]	also measured
CCCC[C@H](NC(=O)[C@H](Cc1c[nH]c2ccccc12)NC(=O)c1ccc2c(c1)C(=O)OC21c2ccc(O)cc2Oc2cc(O)ccc21)C(=O)N[C@@H](CC(=O)O)C(=O)N[C@@H](CC(=O)O)C(=O)N[C@@H](CCC(=O)O)C(=O)N[C@@H](Cc1ccccc1)C(=O)N[C@@H](C)C(=O)N[C@@H](C)C(=O)N[C@H](C(=O)N[C@@H](CCCC)C(=O)N[C@@H](C)C(=O)N[C@H](C(=O)N[C@@H](Cc1c[nH]cn1)C(=O)NCC(=O)N[C@@H](CC(N)=O)C(=O)N[C@@H](CCC(=O)O)C(=O)N[C@@H](CC(C)C)C(=O)N[C@@H](CCCNC(=N)N)C(=O)N[C@@H](CCC(=O)O)C(=O)N[C@@H](CC(C)C)C(=O)N[C@@H](C)C(=O)N[C@@H](CC(=O)O)C(=O)N[C@@H](CCCCN)C(=O)O)C(C)C)[C@@H](C)CC [FAM-1] (5FAM-W[Nle]DDEFAAI[Nle]AVHGNELRELADK-OH)	extremely low uptake	–	–	Uptake into S. typhimurium (% fluorescent cells) ([1]; 10 μM FAM-labeled peptide, 22 h): less than 1%; Uptake into S. typhimurium, in words ([1]; 2 and 10 μM FAM-labeled peptide, 4 and 22 h): very low uptake
CCCC[C@H](NC(=O)[C@H](Cc1c[nH]c2ccccc12)NC(=O)c1ccc2c(c1)C(=O)OC21c2ccc(O)cc2Oc2cc(O)ccc21)C(=O)N[C@@H](CCCNC(=N)N)C(=O)N[C@@H](CC(=O)O)C(=O)N[C@@H](CCC(=O)O)C(=O)N[C@@H](Cc1ccccc1)C(=O)N[C@@H](C)C(=O)N[C@@H](C)C(=O)N[C@H](C(=O)N[C@@H](CCCC)C(=O)N[C@@H](CCCNC(=N)N)C(=O)N[C@H](C(=O)N[C@@H](Cc1c[nH]cn1)C(=O)NCC(=O)N[C@@]1(C)CCCC=CCCC[C@@](C)(C(=O)N[C@@H](CC(C)C)C(=O)N[C@@H](C)C(=O)N[C@@H](CC(=O)O)C(=O)N[C@@H](CCCCN)C(=O)O)NC(=O)[C@H](CCCNC(=N)N)NC(=O)[C@H](CC(C)C)NC(=O)[C@H](CCC(=O)O)NC1=O)C(C)C)[C@@H](C)CC [FAM-18] (5FAM-W[Nle]RDEFAAI[Nle]RVHG[S5]ELR[S5]LADK-OH; staple 15-19)	7–14%	–	–	Uptake into S. typhimurium (penetration efficiency) ([1]; 10 μM FAM-labeled peptide, 4 or 22 h, M9 minimal medium): 9–30%
CCCC[C@H](NC(=O)[C@H](Cc1c[nH]c2ccccc12)NC(C)=O)C(=O)N[C@@H](CC(=O)O)C(=O)N[C@@H](CC(=O)O)C(=O)N[C@@H](CCC(=O)O)C(=O)N[C@@H](Cc1ccccc1)C(=O)N[C@@H](C)C(=O)N[C@@H](C)C(=O)N[C@H](C(=O)N[C@@H](CCCC)C(=O)N[C@@H](C)C(=O)N[C@H](C(=O)N[C@@H](Cc1c[nH]cn1)C(=O)NCC(=O)N[C@@H](CC(N)=O)C(=O)N[C@@H](CCC(=O)O)C(=O)N[C@@H](CC(C)C)C(=O)N[C@@H](CCCNC(=N)N)C(=O)N[C@@H](CCC(=O)O)C(=O)N[C@@H](CC(C)C)C(=O)N[C@@H](C)C(=O)N[C@@H](CC(=O)O)C(=O)N[C@@H](CCCCN)C(=O)O)C(C)C)[C@@H](C)CC [Peptide 1] (Ac-W[Nle]DDEFAAI[Nle]AVHGNELRELADK-OH)	–	71.0 ± 1.1	consistent and full rescue; also recorded: growth rescue was also observed	Inhibition of EF-TuSTm phosphorylation by DocSTm (concentration needed for full inhibition) [2]: fully inhibited; ΔTm (thermal shift) of DocSTm in the presence of peptide (DocSTm toxin; SYPRO Orange 3×, 20 mM K2HPO4, 50 mM (NH4)2SO4, pH 8.0, average Tm with peptide minus average Tm of free DocSTm, mean ± SD): 28.8 ± 2.7 °C
CCCC[C@H](NC(=O)[C@H](Cc1c[nH]c2ccccc12)NC(C)=O)C(=O)N[C@@H](CC(N)=O)C(=O)N[C@@H](CC(N)=O)C(=O)N[C@@H](CCC(=O)O)C(=O)N[C@@H](Cc1ccccc1)C(=O)N[C@@]1(C)CCCC=CCCC[C@@](C)(C(=O)N[C@H](C(=O)N[C@@H](Cc2c[nH]cn2)C(=O)NCC(=O)N[C@@H](CCCNC(=N)N)C(=O)N[C@@H](CCC(N)=O)C(=O)N[C@@H](CC(C)C)C(=O)N[C@@H](CCCNC(=N)N)C(=O)N[C@@H](CCCNC(=N)N)C(=O)N[C@@H](CC(C)C)C(=O)N[C@@H](C)C(=O)N[C@@H](CCCNC(=N)N)C(=O)N[C@@H](CCCCN)C(=O)O)C(C)C)NC(=O)[C@H](CCCC)NC(=O)[C@H]([C@@H](C)CC)NC(=O)[C@H](C)NC1=O [Peptide 36] (Ac-W[Nle]NNEF[S5]AI[Nle][S5]VHGRQLRRLARK-OH; staple 7-11)	–	61.3 ± 1.1	reproducibly rescued DocSTm-induced growth arrest; also recorded: growth rescue was also observed; also recorded: fully rescued	Growth rescue kinetics ([3]; 10 μM peptide, growth curves over 24 h at 37 °C): faster growth rescue than peptide 1; also recorded: more rapidly than 1; also recorded: faster rate than the unmodified peptide 1
